From patent EP0470323A2, “New salts of the nicotinic acid with aminobenzylic compounds and their pharmaceutical use” (BROMLEY LIMITED, priority 1990, dated 1992)

Experiments:
[1] = tested on: hypertrigliceridaemia from olive oil in the rats; assay: Hypertriglyceridaemia from olive oil in the rat (serum lactescence); assay type: in vivo; conditions: dose 2 mM/kg/os
Method: The method described by Zucker I.H. (Sci. Anal. Lab. 24, 114, 1972) has been followed.
Male rats have been used, whose body weight was 150-200 g. The animals were without eating with water "ad libitum" and all this beginning 24 hours before the experiment. The hyperlipaemia was induced by the administration of olive oil by mouth; its composition as to the fat acids was as follows: palmitic acid 10% palmitoleic acid 1%, stearic acid 3%, […] and linoleic acid 7% (all percentages are by weight). The quantity of olive oil administered, by means of a gastric probe, was 10 ml/kg. The treatments were made by finely pounding with a china mortar and by suspending in the olive oil the examined compounds. […] The positive control animals received only olive oil; moreover, there was also a group of negative control animals who received plain water in quantities of 10 ml/kg. Every three hours a group of rats (10) was killed in a light ethereal anaesthesia, in order to be able to appreciate the percentage of triglycerides in the blood. The animals were bled by cutting them the carotids and the blood was collected in plastic test-tubes, capacity 10 ml each, and was centrifuged for ten minutes at 3500 rpm. The evaluated parameter was the lactescence of the serum, which is directly proportional to the contents of kilomicrons and therefore of triglycerides (Zucker, see above the mention). The serum has been diluted 1:5 in a physiologic solution and was read at the spectrophotometer at […] against white (physiologic solution). From the individual optical Density (D.O.) data one could calculate for each group the average of the standard error. The statistical analysis was performed by means of the t of Dunnett.

[2] = tested on: Hypercholesterolaemia caused by Trit WR1339 in the mouses; assay: Hypercholesterolaemia of the mouse caused by Triton WR 1339; assay type: in vivo; conditions: dose 2 mM/kg per os
Method: The method described by Garattini S. (Arzneim,Forsch 9, 206; 1959) with some modifications has been followed.
The mouses used have been males of 22 to 28 grams body weight, on an empty stomach but with water "ad libitum" since 12 hours. The hyperlipidaemia was induced by means of an intraperitoneum administration of […] of Triton WR 1339, with dosage 300 mg/kg in a physiological solution. The subject products were administered at the same time in clear plain water, always in a volume of […] by means of a gastric probe. The animals were sacrified after 20 hours, by cutting them the carotids. The blood was collected in some plastic test-tubes, and was centrifuged at 3500 rpm for ten minutes. Thereafter the total cholesterol (Sornay R and colleagues, Arzeneim Forsch, 26,885 1976) and the total lipids (Chonhelmer R and colleagues, Biological Chemistry 106, 745, 1934) were determined.

[3] = tested on: Hypertriglyceridaemia caused by ethanole in the rats; assay: Hypertriglyceridaemia caused by ethanol in rats, activity at three dose levels; assay type: in vivo; conditions: rat
Excerpt: (§1) For this test group the methods described by Sistori C.R. and colleagues (Atherosclerosis 30, 45; 1978) is followed.
(§2) The hypertriglyceridaemia has been induced into the male rats having a body weight of 160 - 170 g by giving them to drink, for 4 consecutive days, a solution of 10% ethanole in water.

[4] = tested on: Hypertriglyceridaemia caused by ethanole in the rats; assay: Hypertriglyceridaemia caused by ethanol in rats, duration of the effects; assay type: in vivo; conditions: rat, dose 1 mM/kg/os
Excerpt: as §1, §2
In order to perform the particular kinetics of the compound in accordance with the example 1 following the instant invention, it was considered appropriate, anyway, to evaluate the duration of the hypolipaemizing effect in comparison to that of the nicotinic acid.
A group of normal animals was treated with the vehicle only and did serve as a negative control group.

[5] = tested on: aggregation of the platelets caused by the collagene; assay: Anti-aggregating ex vivo activity against collagen in the rat; conditions: rat, 1,00 mM/kg os for 4 days
Method: Six groups of 15 male rats of 200 - 250 g have been used.
The blood taken from the three rats of each group has been mixed and centrifuged during 6 minutes at 1400 rpm, at room temperature. After having taken the plasma full of platelets (PRP) the thereunder floating material has been centrifuged again (4000 rpm during 10 minutes) in order to have the plasma with few platelets (PPP) separated from the balance. The PRP has been diluted with a part of PPP in order to bring the number of platelets to 350 ± 50 x 10³/mm³. The aggregation has been evaluated in accordance with the method of Minsker D.H. and coll. (J. Pharmacol.Exp.Ther. 210 37 1979) by using an ELVI 840 two-channels aggregometer and an Omniscribe recorder B.500. A quantity of 0,25 ml PRP has been used, transferred into the aggregometer for two minutes at 37°C and stirred at 1000 rpm. The light intensity was arranged in such a way, to obtain 0% transmittance with the PRP and 100% with the PPP. After 2′ incubation, by means of microsyringe the collagene was added to the PRP in a volume quantity of 5 mcl with the final concentration of 4 mcg/ml.
From the aggregation trace of the recorder the following data have been evaluated: • a) latent time of the aggregation (seconds between the introductions of collagene and the starting of the aggregation) • b) transmittance increase percentage (maximum aggregation). The same proceeding was repeated for all animals, always by mixing the blood of three rats belonging to the same group and by obtaining in this manner five aggregation curves per group.

[6] = tested on: Central artery of a rabbit's ear; assay: In vitro antispastic action, adrenalin-induced spasm of the perfused isolated artery; conditions: for % inhibi-tions of the con-tractions: spasm induced by Adrenalin, n=4
Method: An "in vitro" method has been used, according to which the withdrawal of the central artery of a rabbit's ear with the relevant nervous connections and the equipment of an appropriate seat for secluded organs was designed (Fleckenstein A., British Journal of Pharmacology 7, 533, 1952).
On the artery they did install a three-ways tube, connected with a peristaltic pump and with a mercury manometer to record the perfusion pressure. The artery was perfused with a rebs liquid at the speed of 2,5 ml/minute. The contractions were induced by injecting into the vessel 0,1 ml adrenalin at the concentration of 1 mcg/ml. The compound according to the example 1 has been added to the bath at concentrations of 0,5 - 1 - 2 uM, five minutes before the adrenalin (four preparations per concentration). As comparison drugs, chlorhydra ted Buflomedil and Papaverin have been used. The activity of the material under investigation has been appreciated in terms of percentages referring to the concentration induced by the Adrenalin (and expressed with DE₅₀) and the relevant forbidding.

[7] = tested on: skin temperature of the mouse's paw; assay: Peripheral vessel-dilating activity in the mouse (skin temperature of hind paws); assay type: in vivo; conditions: for Temperature (°C) of the hind paws (n=10): intravenous, dose 0,030 mM/kg/iv; for Temperature (°C) of the hind paws: oral, dose 0,500 mM/kg/os
Method: The method of Richter W. (Acta Pharm. Toxicol. 21, 91; 1974) was used; it consists in determining, at fixed time intervals after the treatment, the skin temperature of the mouse's paw, by keeping the animals in rooms at a constant temperature of 21°C.
Some groups of ten male mouses each have been used; the weight of each animal was 30 g approximately.
The compound according to the Example 1 has been tested "per os" at three basic levels of the doses (0,125 - 0,25 - 0,5 mM/kg) and by intravenous injection at two dose levels (0,015 and 0,03 mM/kg), in comparison with one sole dose of Papaverin and chlorhydrated Buflomedil (0,5 mM/kg "per os" and 0,03m M/kg intravenous). The observation of the skin temperature at the mouse's paw was made before the treatment, 30, 60 and 120 minutes after the "per os" treatment, […] (A-Hl Ellab) connected with an Ellab electric recorder. Of each animal the temperature of both hind paws has been measured, and the values obtained have been averaged .

[8] = tested on: red cells in the rat; assay: Red cell adhesivity / filtration, Teitel method; assay type: in vivo
Excerpt: (§3) steresis (Teiltel P.: Nouv. Rev. Franç. Hématol. 7, 195, 1967). Any alteration, almost undoubtely at the level of the red cell's membrane, cause some damaging variations of the red cell's elasticity thus making more difficult the passing through the capillary vessels having more reduced diameter, and therefore increasing the flow resistance in the peripheral vessels systems. In order to determine the effect caused by the compound according to the Example 1, on these features of the red cell, the method described by Schmidt, Schonbein and colleagues (Blut 26, 369, 1973) has been used.
(§4) In the circulatory flow, the above mentioned capillary vessels being excluded, the blood cells do normally circulate being attached between each other because of their adhesiveness. In order to study this adhesion force, the above mentioned Teitel method has been used. Male rats of 150 g body weight approximately have been employed, and they have been treated for three consecutive days with 0,5 mM/kg/os of the compound according to the Example 1, or otherwise Buflomedil, or even Pentosiphillin used as comparison substance. After the last treatment the animals, without eating from 18 hours, have been killed in a light ethereal anaesthesy and the blood was collected over an 0,2 molar EDTA (9 and 1 volumes respectively). The red cells filtering possibility, measured with the Teitel method, wherein the quantity of red cells passing, in high haematocritical conditions, through a paper filter with holes of 20-40 µm in a previously determined time, has been ascertained as follows: the blood was centrifuged for ten minutes at 2000 rpm in order to obtain the massing of the red cells, two ml of the blood collected as above were put into an upside down turned cone made with filtering paper, being previously wetted with a physiological solution. The volume passing through the filter in 2 - 4 - 8 and 16 minutes is then measured. The average filtration time T 1/2 is reckoned on semi-logarithmic paper by putting on the abscissae the logarithm of the time, and on the ordinates the percentage of blood filtered. In order to follow the Schmidt Schönbein method, the here after described proceeding has been performed: 0,2 ml of a suspension of red cells at 2% obtained by diluting the blood with the autological plasma, then it was placed into an appropriate device permitting to filter this blood through a filter (millipores) of 5 µm mashes at a filtration pressure of 50 mm water. With a chronometer one determines the time required for the passage of the whole sample through the filter.
At time same time, one measures, in the same conditions, the same parameter for a plasma sample. One calculates then the relative filtration time by dividing the time required to filter the diluted blood sample by the time being necessary to filter the plasma sample. For each group the average and the standard error of the individual data obtained was reckoned. The statistical evaluation was obtained by means of the Dunnett test.

[9] = tested on: red cells in the rat; assay: Red cell deformability / filtration, Schmidt-Schönbein method; assay type: in vivo; conditions: dose 3 x 0,5 mM/kg/os
Excerpt: as §3
as §4, with “The average filtration time T 1/2 is reckoned on semi-logarithmic paper by putting on the abscissae the logarithm of the time, and on the ordinates the percentage of blood filtered. In order to follow the Schmidt Schönbein method, the here after described proceeding has been performed: 0,2 ml of a suspension of red cells at 2% obtained by diluting the blood with the autological plasma, then it was placed into an appropriate device permitting to filter this blood through a filter (millipores) of 5 µm mashes at a filtration pressure of 50 mm water. With a chronometer one determines the time required for the passage of the whole sample through the filter.” left out

[10] = 20 hours after Triton WR 1339 i.p.
[11] = PRP 2 hours after last treatment, collagene 4 mcg/ml
[12] = 0 minutes (before the treatment)

## O=C(O)c1cccnc1 [Nicotinic acid, nicotinic acid]
[1]; 3 h
  Serum opt.density at the indicated times (M ± E.S.): 258 ± 14,9
[1]; 6 h
  Serum opt.density at the indicated times (M ± E.S.): 1312 ± 58,2
[1]; 9 h
  Serum opt.density at the indicated times (M ± E.S.): 1161 ± 53,2
[1]; 12 h
  Serum opt.density at the indicated times (M ± E.S.): 1000 ± 31,3
[1]; 15 h
  Serum opt.density at the indicated times (M ± E.S.): 510 ± 18,4
[1]; 18 h
  Serum opt.density at the indicated times (M ± E.S.): 250 ± 21,4
[2]; [10]
  Tot.Cholesterol M ± E.S.: 215 ± 16 mg/100 ml
  Tot.Lipids M ± E.S.: 1643 ± 131 mg/100 ml
[2]; reduction
  Tot.Cholesterol % vs contr.: 39,9%
  Tot.Lipids % vs contr.: 32,5%
[3]; dose 1,0 mM/kg/os once a day for 4 days, 4 hours after last treatment
  Triglycerids M ± E.S.: 156,4 ± 18,1 mg/100 ml
[3]; dose 1,0 mM/kg/os, 4 hours after treatment
  Triglycerids % vs contr. positivi: -24,7%
[3]; dose of 1 mM/kg per os
  decrease (of triglycerides vs positive controls): 24,7%
[4]; 4 h
  % variation vs positive controls (Trigliceridi): -29,4%
[4]; 4 h from the last treatment
  Trigliceridi: 181,6 ± 15,7 mg/100 ml
[4]; 6 h
  % variation vs positive controls (Trigliceridi): -25,5%
[4]; 6 h from the last treatment
  Trigliceridi: 176,0 ± 11,2 mg/100 ml
[4]; 12 h
  % variation vs positive controls (Trigliceridi): -10,3%
[4]; 12 h from the last treatment
  Trigliceridi: 184,6 ± 8,9 mg/100 ml
[4]; 16 h
  % variation vs positive controls (Trigliceridi): -3,1%
[4]; 16 h from the last treatment
  Trigliceridi: 180,7 ± 14,5 mg/100 ml
[4]; 24 h
  % variation vs positive controls (Trigliceridi): +7,9%
[4]; 24 h from the last treatment
  Trigliceridi: 178,4 ± 9,7 mg/100 ml
[5]
  Latency time, % variation vs controls: +8,0%
  Transmittance percentage, % variation vs controls: -13,0%
[5]; [11]
  Latency time (sec.): 40,5 ± 4,0 sec.
  Transmittance percentage (maximum aggregation): 68,4 ± 5,2%

## COc1ccc(Cc2nccc3cc(OC)c(OC)cc23)cc1OC [Papaverin, reference compound]
[6]; Oryctolagus cuniculus, read-out: DE50
  EC50: 760 nM
[6]; concentration 0,5 μ M
  % inhibi-tions of the con-tractions: 33%
[6]; concentration 1,0 μ M
  % inhibi-tions of the con-tractions: 64%
[6]; concentration 2,0 μ M
  % inhibi-tions of the con-tractions: 81%
[7]; [12]
  Temperature (°C) of the hind paws (n=10): 24,5 ± 0,28 °C
  Temperature (°C) of the hind paws: 24,8 ± 0,35 °C
[7]; 30 minutes from the treatment
  Temperature (°C) of the hind paws (n=10): 26,6 ± 0,25 °C
  Temperature (°C) of the hind paws: 25,5 ± 0,21 °C
[7]; 60 minutes from the treatment
  Temperature (°C) of the hind paws (n=10): 25,7 ± 0,20 °C
  Temperature (°C) of the hind paws: 25,9 ± 0,25 °C
[7]; 120 minutes from the treatment
  Temperature (°C) of the hind paws (n=10): 25,5 ± 0,23 °C
  Temperature (°C) of the hind paws: 25,1 ± 0,30 °C

## CC(=O)CCCCn1c(=O)c2c(ncn2C)n(C)c1=O [pentossifillin]
[8]; dose 3 x 0,5 mM/kg/os
  Teitel method Δ % vs contr.: 40,1%
[8]; dose 3 x 0,5 mM/kg/os (three consecutive days)
  Teitel method T1/2 min. M ± E.S.: 2,18 ± 0,19 min.
[9]
  Schmidt-Schönbein method Δ % vs contr.: 52,8%
